The results in this text go back to patent publication US20250186541A1, “DLL3 TARGETING PEPTIDES AND CONSTRUCTS THEREOF” (MARIANA ONCOLOGY INC., priority 2023, published 2025).

As usually defined, the pKd is the Kd on a negative log10 scale, so that one unit is a factor of ten. Higher therefore signals a low Kd.

The target in the test is T1, human DLL3 (Homo sapiens, UniProt Q9NYJ7).
T1 construct: biotin (biotinylated)
T1 sequence (Q9NYJ7 27-618): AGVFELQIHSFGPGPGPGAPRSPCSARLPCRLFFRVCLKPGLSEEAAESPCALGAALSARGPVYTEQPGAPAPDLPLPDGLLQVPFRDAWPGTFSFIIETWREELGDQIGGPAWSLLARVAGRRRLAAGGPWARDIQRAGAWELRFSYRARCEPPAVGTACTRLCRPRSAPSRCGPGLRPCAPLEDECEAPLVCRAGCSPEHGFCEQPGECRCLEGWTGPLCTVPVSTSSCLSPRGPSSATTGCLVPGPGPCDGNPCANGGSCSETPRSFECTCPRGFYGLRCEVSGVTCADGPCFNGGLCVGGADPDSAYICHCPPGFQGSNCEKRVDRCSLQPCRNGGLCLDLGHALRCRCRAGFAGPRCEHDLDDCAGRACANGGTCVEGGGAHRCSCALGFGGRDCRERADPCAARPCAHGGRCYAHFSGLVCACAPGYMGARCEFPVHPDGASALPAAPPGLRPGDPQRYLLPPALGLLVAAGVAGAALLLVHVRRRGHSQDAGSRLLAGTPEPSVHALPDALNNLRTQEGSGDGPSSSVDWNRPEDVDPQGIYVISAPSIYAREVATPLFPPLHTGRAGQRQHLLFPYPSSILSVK
The test is described as follows: Affinity determination by Surface Plasmon Resonance (SPR), Biacore, 1:1 binding model. The note with it: biotinylated human DLL3 on streptavidin chip, 25° C.; NB = nonbinding. The procedure, abridged:
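SPR with biotinylated human DLL3 captured on a streptavidin chip, with a reference surface subtracted. Samples were injected at several concentrations at 100 μL/min in phosphate buffer with 137 mM NaCl, 2.7 mM KCl, 0.05% P20 and 2% DMSO. Kinetic and affinity constants came from a 1:1 binding fit.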

pKd: −log10 of the molar value. Bridge positions count the residues as written; N and C are the ends. Square brackets hold non-standard residues; d marks the D form. Peptide text beside a SMILES is read from it. * marks the point of attachment. DOTA = O=C(O)CN1CCN(CC(=O)O)CCN(CC(=O)*)CCN(CC(=O)O)CC1; Trp(7-aza) = N[C@@H](Cc1c[nH]c2ncccc12)C(=O)O; Pro(trans-4-F) = O=C(O)[C@@H]1C[C@@H](F)CN1; Bip = N[C@@H](Cc1ccc(-c2ccccc2)cc1)C(=O)O; Pro(cis-4-F) = O=C(O)[C@@H]1C[C@H](F)CN1; 2Nal = N[C@@H](Cc1ccc2ccccc2c1)C(=O)O; Hyp = O=C(O)[C@@H]1C[C@@H](O)CN1; αMeD = C[C@](N)(CC(=O)O)C(=O)O; Pip = O=C(O)[C@@H]1CCCCN1; hSer = N[C@@H](CCO)C(=O)O; Nle = CCCC[C@H](N)C(=O)O; Ahx = NCCCCCC(=O)O Where only a bound is given, the exact number is not on record here.

In the case of `CC(C)C[C@@H]1NC(=O)[C@H](Cc2c[nH]c3ccccc23)NC(=O)[C@@H](NC(=O)[C@H](CC(=O)O)NC(=O)[C@H](CO)NC(=O)CCCCCNC(=O)CN2CCN(CC(=O)O)CCN(CC(=O)O)CCN(CC(=O)O)CC2)CSSC[C@@H](C(=O)N2CCC[C@H]2C(=O)N[C@@H](Cc2ccc3ccccc3c2)C(=O)N[C@@H](CC(=O)O)C(N)=O)NC(=O)[C@H](CC(N)=O)NC(=O)[C@H](Cc2c[nH]c3ccccc23)NC(=O)[C@H](CCC(N)=O)NC1=O` [compound 40, DOTA-Ahx-S-D-C(3)-W-L-Q-W-N-C(3)-P-(2Nal)-D-CONH2] ({DOTA-Ahx}-SDCWLQWNCP[2Nal]D-NH2; disulfide 3-9), the pKd was below 6.52.

Regarding `CSCC[C@H](NC(C)=O)C(=O)N[C@@H](CO)C(=O)N[C@@H](CC(=O)O)C(=O)N[C@H]1CSSC[C@@H](C(=O)N2C[C@H](F)C[C@H]2C(=O)N[C@@H](Cc2ccccc2)C(=O)N[C@@H](CC(=O)O)C(=O)N[C@H](CCCCNC(=O)CN2CCN(CC(=O)O)CCN(CC(=O)O)CCN(CC(=O)O)CC2)C(N)=O)NC(=O)[C@H](CC(N)=O)NC(=O)[C@H](Cc2c[nH]c3ccccc23)NC(=O)[C@H](CCC(N)=O)NC(=O)[C@H](CC(C)C)NC(=O)[C@H](Cc2c[nH]c3ccccc23)NC1=O` [compound 42, Ac-M-S-D-C(3)-W-L-Q-W-N-C(3)-(trans4Fluoro-P)-F-D-D-Lys(DOTA)-CONH2] (Ac-MSDCWLQWNC[Pro(trans-4-F)]FD[dK](DOTA)-NH2; disulfide 4-10), the pKd is 8.00.

`CSCC[C@H](NC(C)=O)C(=O)N[C@@H](CO)C(=O)N[C@@H](CC(=O)O)C(=O)N[C@H]1CSSC[C@@H](C(=O)N2C[C@@H](F)C[C@H]2C(=O)N[C@@H](Cc2ccccc2)C(=O)N[C@@H](CC(=O)O)C(=O)N[C@H](CCCCNC(=O)CN2CCN(CC(=O)O)CCN(CC(=O)O)CCN(CC(=O)O)CC2)C(N)=O)NC(=O)[C@H](CC(N)=O)NC(=O)[C@H](Cc2c[nH]c3ccccc23)NC(=O)[C@H](CCC(N)=O)NC(=O)[C@H](CC(C)C)NC(=O)[C@H](Cc2c[nH]c3ccccc23)NC1=O` [compound 43, Ac-M-S-D-C(3)-W-L-Q-W-N-C(3)-(cis4Fluoro-P)-F-D-D-Lys(DOTA)-CONH2] (Ac-MSDCWLQWNC[Pro(cis-4-F)]FD[dK](DOTA)-NH2; disulfide 4-10) showed a pKd of 7.55.

`CSCC[C@H](NC(C)=O)C(=O)N[C@@H](CO)C(=O)N[C@@H](CC(=O)O)C(=O)N[C@H]1CSSC[C@@H](C(=O)N2C[C@H](O)C[C@H]2C(=O)N[C@@H](Cc2ccccc2)C(=O)N[C@@H](CC(=O)O)C(=O)N[C@H](CCCCNC(=O)CN2CCN(CC(=O)O)CCN(CC(=O)O)CCN(CC(=O)O)CC2)C(N)=O)NC(=O)[C@H](CC(N)=O)NC(=O)[C@H](Cc2c[nH]c3ccccc23)NC(=O)[C@H](CCC(N)=O)NC(=O)[C@H](CC(C)C)NC(=O)[C@H](Cc2c[nH]c3ccccc23)NC1=O` [compound 44, Ac-M-S-D-C(3)-W-L-Q-W-N-C(3)-(trans4OH-P)-F-D-D-Lys(DOTA)-CONH2] (Ac-MSDCWLQWNC[Hyp]FD[dK](DOTA)-NH2; disulfide 4-10) showed a negative logarithm of the Kd (pKd) of 7.59.

In the case of `CSCC[C@H](NC(C)=O)C(=O)N[C@@H](CO)C(=O)N[C@@H](CC(=O)O)C(=O)N[C@H]1CSSC[C@@H](C(=O)N2CCCC[C@H]2C(=O)N[C@@H](Cc2ccccc2)C(=O)N[C@@H](CC(=O)O)C(=O)N[C@H](CCCCNC(=O)CN2CCN(CC(=O)O)CCN(CC(=O)O)CCN(CC(=O)O)CC2)C(N)=O)NC(=O)[C@H](CC(N)=O)NC(=O)[C@H](Cc2c[nH]c3ccccc23)NC(=O)[C@H](CCC(N)=O)NC(=O)[C@H](CC(C)C)NC(=O)[C@H](Cc2c[nH]c3ccccc23)NC1=O` [compound 47, Ac-M-S-D-C(3)-W-L-Q-W-N-C(3)-(Pip)-F-D-D-Lys(DOTA)-CONH2] (Ac-MSDCWLQWNC[Pip]FD[dK](DOTA)-NH2; disulfide 4-10), the negative logarithm of the Kd (pKd) was 7.59.

The molecule `CSCC[C@H](NC(C)=O)C(=O)N[C@@H](CO)C(=O)N[C@@H](CC(=O)O)C(=O)N[C@H]1CSSC[C@@H](C(=O)N2CCC[C@H]2C(=O)N[C@@H](Cc2ccccc2)C(=O)N[C@@](C)(CC(=O)O)C(=O)N[C@H](CCCCNC(=O)CN2CCN(CC(=O)O)CCN(CC(=O)O)CCN(CC(=O)O)CC2)C(N)=O)NC(=O)[C@H](CC(N)=O)NC(=O)[C@H](Cc2c[nH]c3ccccc23)NC(=O)[C@H](CCC(N)=O)NC(=O)[C@H](CC(C)C)NC(=O)[C@H](Cc2c[nH]c3ccccc23)NC1=O` [compound 53, Ac-M-S-D-C(3)-W-L-Q-W-N-C(3)-P-F-(aMeD)-D-Lys(DOTA)-CONH2] (Ac-MSDCWLQWNCPF[αMeD][dK](DOTA)-NH2; disulfide 4-10) had a negative logarithm of the Kd (pKd) below 6.52.

As for `CSCC[C@H](NC(C)=O)C(=O)N[C@@H](CO)C(=O)N[C@@H](CC(=O)O)C(=O)N[C@H]1CSSC[C@@H](C(=O)N2CCC[C@H]2C(=O)N[C@@H](Cc2ccccc2)C(=O)N[C@@H](CCO)C(=O)N[C@H](CCCCNC(=O)CN2CCN(CC(=O)O)CCN(CC(=O)O)CCN(CC(=O)O)CC2)C(N)=O)NC(=O)[C@H](CC(N)=O)NC(=O)[C@H](Cc2c[nH]c3ccccc23)NC(=O)[C@H](CCC(N)=O)NC(=O)[C@H](CC(C)C)NC(=O)[C@H](Cc2c[nH]c3ccccc23)NC1=O` [compound 54, Ac-M-S-D-C(3)-W-L-Q-W-N-C(3)-P-F-(hSer)-D-Lys(DOTA)-CONH2] (Ac-MSDCWLQWNCPF[hSer][dK](DOTA)-NH2; disulfide 4-10), the pKd was below 6.52.

`CSCC[C@H](NC(C)=O)C(=O)N[C@@H](CO)C(=O)N[C@@H](CC(=O)O)C(=O)N[C@H]1CSSC[C@@H](C(=O)N2CCC[C@H]2C(=O)N[C@@H](Cc2ccccc2)C(=O)N[C@@H](CC(=O)O)C(=O)N[C@H](CCCCNC(=O)CN2CCN(CC(=O)O)CCN(CC(=O)O)CCN(CC(=O)O)CC2)C(N)=O)NC(=O)[C@H](CC(N)=O)NC(=O)[C@H](Cc2c[nH]c3ccccc23)NC(=O)[C@H](CCC(N)=O)NC(=O)[C@H](CC(C)C)NC(=O)[C@H](Cc2ccc(-c3ccccc3)cc2)NC1=O` [compound 55, Ac-M-S-D-C(3)-(BIP)-L-Q-W-N-C(3)-P-F-D-D-Lys(DOTA)-CONH2] (Ac-MSDC[Bip]LQWNCPFD[dK](DOTA)-NH2; disulfide 4-10) gave a negative-log Kd (pKd) below 6.52.

Consider `CSCC[C@H](NC(C)=O)C(=O)N[C@@H](CO)C(=O)N[C@@H](CC(=O)O)C(=O)N[C@H]1CSSC[C@@H](C(=O)N2CCC[C@H]2C(=O)N[C@@H](Cc2ccccc2)C(=O)N[C@@H](CC(=O)O)C(=O)N[C@H](CCCCNC(=O)CN2CCN(CC(=O)O)CCN(CC(=O)O)CCN(CC(=O)O)CC2)C(N)=O)NC(=O)[C@H](CC(N)=O)NC(=O)[C@H](Cc2c[nH]c3ccccc23)NC(=O)[C@H](CCC(N)=O)NC(=O)[C@H](CC(C)C)NC(=O)[C@H](Cc2c[nH]c3ncccc23)NC1=O` [compound 57, Ac-M-S-D-C(3)-(7Aza-W)-L-Q-W-N-C(3)-P-F-D-D-Lys(DOTA)-CONH2] (Ac-MSDC[Trp(7-aza)]LQWNCPFD[dK](DOTA)-NH2; disulfide 4-10), for which the pKd was below 6.52.

Turning to `CSCC[C@H](NC(C)=O)C(=O)N[C@@H](CO)C(=O)N[C@@H](CC(=O)O)C(=O)N[C@H]1CSSC[C@@H](C(=O)N2CCC[C@H]2C(=O)N[C@@H](Cc2ccccc2)C(=O)N[C@@H](CC(=O)O)C(=O)N[C@H](CCCCNC(=O)CN2CCN(CC(=O)O)CCN(CC(=O)O)CCN(CC(=O)O)CC2)C(N)=O)NC(=O)[C@H](CC(N)=O)NC(=O)[C@H](Cc2ccc(-c3ccccc3)cc2)NC(=O)[C@H](CCC(N)=O)NC(=O)[C@H](CC(C)C)NC(=O)[C@H](Cc2c[nH]c3ccccc23)NC1=O` [compound 60, Ac-M-S-D-C(3)-W-L-Q-(BIP)-N-C(3)-P-F-D-D-Lys(DOTA)-CONH2] (Ac-MSDCWLQ[Bip]NCPFD[dK](DOTA)-NH2; disulfide 4-10), the pKd was below 6.52.

`CCCC[C@@H]1NC(=O)[C@H](Cc2c[nH]c3ccccc23)NC(=O)[C@@H](NC(=O)[C@H](CC(=O)O)NC(=O)[C@H](CO)NC(=O)[C@H](CCSC)NC(C)=O)CSSC[C@@H](C(=O)N2CCC[C@H]2C(=O)N[C@@H](Cc2ccccc2)C(=O)N[C@@H](CC(=O)O)C(=O)N[C@H](CCCCNC(=O)CN2CCN(CC(=O)O)CCN(CC(=O)O)CCN(CC(=O)O)CC2)C(N)=O)NC(=O)[C@H](CC(N)=O)NC(=O)[C@H](Cc2c[nH]c3ccccc23)NC(=O)[C@H](CCC(N)=O)NC1=O` [compound 68, Ac-M-S-D-C(3)-W-(Nle)-Q-W-N-C(3)-P-F-D-D-Lys(DOTA)-CONH2] (Ac-MSDCW[Nle]QWNCPFD[dK](DOTA)-NH2; disulfide 4-10) had a negative-log Kd (pKd) of 7.80.

`CC(C)C[C@@H]1NC(=O)[C@H](Cc2c[nH]c3ccccc23)NC(=O)[C@@H](NC(=O)[C@H](CC(=O)O)NC(=O)[C@H](CO)NC(=O)CCCCCNC(=O)CN2CCN(CC(=O)O)CCN(CC(=O)O)CCN(CC(=O)O)CC2)CSSC[C@@H](C(=O)N2CCC[C@H]2C(=O)N[C@@H](Cc2ccccc2)C(=O)N[C@@H](CC(=O)O)C(N)=O)NC(=O)[C@H](CC(N)=O)NC(=O)[C@H](Cc2c[nH]c3ccccc23)NC(=O)[C@H](CCC(N)=O)NC1=O` [compound 72, DOTA-Ahx-S-D-C(3)-W-L-Q-W-N-C(3)-P-F-D-CONH2] ({DOTA-Ahx}-SDCWLQWNCPFD-NH2; disulfide 3-9) had a pKd of 7.96.
